Tests used:
[1] = biological target: T1, CYP3A4 (Homo sapiens, UniProt P08684); assay: ROS-based fluorescence assay (DCFH-DA oxidation) of inhibition of CYP3A4-mediated testosterone oxidation; conditions: ROS-based IC50, recombinant CYP3A4 microsomes, testosterone substrate 40 μM
Experimental: (§1) 1′-hydroxymidazolam and microsomes (SUPERSOMES™) prepared from baculovirus-infected insect cells containing recombinant heterologously expressed human CYP plus NADPH CYP reductase were purchased from GenTest Corp. (Woburn, Mass., United States of America). 6β-hydroxytestosterone and 11α-hydroxyprogesterone were obtained from Steraloids Inc. (Wilton, N.H., United States of America).
Stock solutions of DCFH-DA (2.5 mM) and NADPH (20 mM) were prepared prior to each experiment in methanol and buffer, respectively. Substrates and inhibitors were prepared in 100% methanol and stored at −20° C. […] Unless otherwise indicated, testosterone were added to the reactions at a final concentration of 40 μM. An equal volume of methanol was added to samples containing no substrate and served as controls. Reactions were performed at 37° C. in 96-well black bottom plates. Inhibitors were added at varying concentrations from stock solutions prepared in either water or methanol. Final methanol concentrations were kept constant among samples (1%, v/v) to eliminate variability in the rate of fluorescence production due to the effect of methanol on CYP activity. […] The concentration of DCF in the reactions was determined using a standard curve constructed with authentic DCF. […]

[2] = biological target: T1, CYP3A4; assay: Conventional LC-UV assay quantifying 6β-hydroxytestosterone formation by CYP3A4; conditions: LC-based IC50, recombinant CYP3A4 microsomes, testosterone substrate, LC-UV quantification of 6β-hydroxytestosterone
Experimental: as §1
Inhibition of CYP3A4-mediated oxidation of testosterone was measured by 6β-hydroxytestosterone formation. The kinetics of 6β-hydroxytestosterone formation by CYP3A4 was determined and compared to rate of fluorescence production. Reactions consisted of varying concentrations of testosterone, 50 pmol CYP3A4 per ml, and buffer to a final volume of one milliliter. Reactions were performed at 37° C. and were started upon addition of 1 mM NADPH. […] Samples were placed immediately on ice and the precipitated protein was removed by centrifugation for four minutes at 13,000 rpm. The supernatant was transferred to HPLC vials for analysis.
HPLC analysis was performed using an Agilent 1100 Series HPLC system (Agilent Technologies, Palo Alto, Calif., United States of America) equipped with an online UV-detector. […]

T1 sequence (P08684 2-503 limits assumed): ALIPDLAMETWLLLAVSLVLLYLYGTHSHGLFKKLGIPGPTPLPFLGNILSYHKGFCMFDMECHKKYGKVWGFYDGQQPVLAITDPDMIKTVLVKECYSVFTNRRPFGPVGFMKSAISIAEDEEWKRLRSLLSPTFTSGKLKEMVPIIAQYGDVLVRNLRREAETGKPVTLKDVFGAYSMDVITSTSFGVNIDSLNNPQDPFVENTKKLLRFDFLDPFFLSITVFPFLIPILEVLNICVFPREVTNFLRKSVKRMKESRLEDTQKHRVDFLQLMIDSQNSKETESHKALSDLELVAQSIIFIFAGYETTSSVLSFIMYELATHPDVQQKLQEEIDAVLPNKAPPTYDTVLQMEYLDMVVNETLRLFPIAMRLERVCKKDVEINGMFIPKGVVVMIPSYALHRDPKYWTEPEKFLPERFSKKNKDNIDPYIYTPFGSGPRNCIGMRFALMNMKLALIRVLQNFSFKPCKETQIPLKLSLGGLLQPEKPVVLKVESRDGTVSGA

IC50 [1] [µM] | IC50 [2] [µM] | Compound
27.6 | 22.6 | CC(=O)[C@H]1CC[C@H]2[C@@H]3CCC4=CC(=O)CC[C@]4(C)[C@H]3CC[C@]12C [Progesterone]
27.6 | 1.7 | CC[C@H]1OC(=O)[C@H](C)[C@@H](O[C@H]2C[C@@](C)(OC)[C@@H](O)[C@H](C)O2)[C@H](C)[C@@H](O[C@@H]2O[C@H](C)C[C@H](N(C)C)[C@H]2O)[C@](C)(O)C[C@@H](C)C(=O)[C@H](C)[C@@H](O)[C@]1(C)O [Erythromycin]
